“And” between values parts separate entries of the source, which are not always exact repeats. Equal values may be shown once. Read-outs that look alike come from different tables or passages of the source.
Columns and labels:
denitrifying biomass [1] = details: for methanol consumption rate / nitrate consumption rate / methanol consumption rate, activity recovery / nitrate consumption rate, activity recovery: experimental reactor
Protocol: Methanol provided the carbon source and nitrate provided the electron acceptor. The following procedure was followed:
1. Sludge removed from the denitrifying SBR (sequencing batch reactor). The biomass was enriched for 5 months in an 8 L reactor with methanol as the carbon source and nitrate as the electron acceptor.
2. A batch experiment was performed at pH 6 for initial biomass activity determination. At the beginning of the test, nitrate and methanol were added. Liquid phase samples were taken every 15 minutes for the analysis of nitrate and methanol. The consumption rates of methanol and nitrate were determined. All other batch tests described below were also conducted at pH 6. 3. Fresh sludge of 2 L was removed from the SBR at the end of a cycle, and equally divided into two batch reactors, namely the control and the experimental reactors. • a. The sludge in the control reactor was kept at pH 6 under mixed conditions for 48 hours; • b. The sludge in the experimental reactor was kept at pH 6 under mixed conditions for 48 hours. […] 4. 24 hours after the above conditions were started, sludge samples of 250 mL each were removed from both the control and the experimental reactors, and batch experiments as described in Step 2 were performed. Before the addition of nitrate and methanol, the sludges were washed with effluent from the parent SBR to ensure that both sludge samples were nitrite-free. 5. The above tests were repeated at 48 hours. 6. Sludge samples were also removed at 48 hours from both reactors to quantify the live/dead cells using the Live/Dead BacLight Bacterial Viability assay. 7. At 48 hours, the experimental reactor was washed with the effluent from the parent SBR to remove the residual nitrite. Nitrate and methanol were then added to the reactor resulting in concentrations of […] and 150 mg/L, respectively. The methanol and nitrate consumptions rates at the end of Day 3, Day 4 and Day 7 were measured through measuring the nitrate and methanol concentrations over a period over one hour each time. […] Experiments with Full-Scale Sludge

denitrifying biomass [2] = details: methanol sludge, experimental reactor, 48 hours, FNA approx. 0.97 ppm, pH 6; 16 images
Protocol: 2. A batch experiment was performed at pH 6 for initial biomass activity determination. At the beginning of the test, nitrate and methanol were added. Liquid phase samples were taken every 15 minutes for the analysis of nitrate and methanol. The consumption rates of methanol and nitrate were determined. All other batch tests described below were also conducted at pH 6. 3. Fresh sludge of 2 L was removed from the SBR at the end of a cycle, and equally divided into two batch reactors, namely the control and the experimental reactors. • a. The sludge in the control reactor was kept at pH 6 under mixed conditions for 48 hours; • b. The sludge in the experimental reactor was kept at pH 6 under mixed conditions for 48 hours. […] 4. 24 hours after the above conditions were started, sludge samples of 250 mL each were removed from both the control and the experimental reactors, and batch experiments as described in Step 2 were performed. […] Sludge samples were also removed at 48 hours from both reactors to quantify the live/dead cells using the Live/Dead BacLight Bacterial Viability assay. […] The methanol and nitrate consumptions rates at the end of Day 3, Day 4 and Day 7 were measured through measuring the nitrate and methanol concentrations over a period over one hour each time. […]

[3] = tested on: bacteria in a full-scale sludge; details: FNA treated, 48 hours, 500 mgNO2-N/L, pH 6.0, 29 images
Protocol: Similar tests were performed on a full-scale sludge. However, no activity tests were carried out. […] The nitrite concentration applied to the experimental reactor was 500 mgNO2-N/L. pH was maintained at 6.0 in both the control and experimental reactors.

[4] = tested on: secondary sludge (denitrifying microorganisms)
Protocol: (§1) In general, primary sludge is readily hydrolysable (Mahmood and Elliott, 2006; Foladori et al., 2010). […] A series of batch tests were conducted through the use of an enriched methonal-utilising denitrifiers culture, which was employed as secondary sludge in this study.

[5] = tested on: secondary sludge (enriched methonal-utilising denitrifiers culture)
Protocol: as §1

[6] = Protocol: In this experiment, a lab-scale sequencing batch reactor (SBR) with a working volume of 8 L was used in this study. The SBR was operated with a cycle time of 6-h, consisting of 10 min anoxic feed, 70 min anoxic reaction, 225 min aerobic reaction, 5 min sludge wasting, 45 min settling and 5 min decanting periods. In each cycle, 2 L of synthetic wastewater containing 400 mg COD and 50 mgN/L TKN including 40 mgNH4+-N/L, made from milk powder and ammonium chloride, along with other trace elements, was pumped into the SBR in the 10 min feed period, resulting in a hydraulic retention time (HRT) of 24 h. Before settling, around 133 ml of mixed liquor was wasted, giving rise to a sludge retention time of 15 days. The SBR was operated at a temperature of 18±2° C., with DO being controlled between 1.5-2.0 mg/L by a programmable logic controller (PLC) in the aerobic period.
50% of the wasted mixed liquor was treated by 2.0 mg HNO2-N/L for approximately 24 h, 30 h, 36 h and 42 h, respectively.
The sludge wasted from the SBR was allowed to settle. […] The other 50% of the sludge was sent to disposal.
A control SBR operating under identical conditions was also fed with the same wastewater, but there was no recycle of any sludge to this reactor.

secondary sludge = details: famine conditions, during FNA treatment (FIG. 4)
Text: NH4+ release rate under famine conditions is an indication of the hydrolysis of intracellular compounds release during the decay of dying cells. This hydrolysis is taken place by the activity of other living microorganisms present in the sludge.

AOB, NOB and OHOs = details: FNA 0.22-2.47 mgN/L, pH 6, 24 h exposure
Protocol: Sludge was taken out from the parent reactor (SBR) at the end of an aerobic period and then transferred into a batch reactor. Afterwards, ammonium and nitrite stock solutions were added to the batch reactor, resulting in the ammonium and nitrite concentrations of 25 mg NH4-N/L and 20 mg NO2-N/L, respectively. Air was supplied during the whole experiment period (DO was not limiting, i.e. >3 mg/L). pH was controlled in the range of 7.5-8 during the whole experimental period. The activities of AOB and NOB were determined as biomass-specific nitrite+nitrate and nitrate production rates, respectively.
Sludge was taken out from the parent reactor at the end of an aerobic period and then transferred into a batch reactor. Afterwards, sodium acetate and ammonium stock solutions were added to the batch reactor, resulting in the COD and ammonium concentrations of 150 mg COD/L and 20 NH4-N/L, respectively. Air was supplied during the whole experiment period (DO was not limiting, i.e. >3 mg/L). pH was controlled in the range of 7.5-8 during the whole experimental period. The aerobic activity of OHO was determined as biomass-specific COD consumption rates.
The experimental conditions applied in batch testing are set out in Table 6.

[7] = Day 1 of exposure, 500 mg NO2-N/L, pH 6, FNA approx. 0.97 ppm
[8] = Day 2 (48 h exposure; time when recovery started), FNA approx. 0.97 ppm, pH 6
[9] = Day 3, after 48 h FNA exposure and nitrite wash-out
[10] = Day 4, after 48 h FNA exposure and nitrite wash-out
[11] = Day 7, after 48 h FNA exposure and nitrite wash-out

## O=NO [FNA, free nitrous acid]
Denitrifying biomass [1]; FNA approximately 1 ppm for 48 hours
  loss of biomass activity: 99%
Denitrifying biomass [1]; [7]
  methanol consumption rate: 0.051 mg Methanol/gVSS*min
  nitrate consumption rate: 0.014 mg N—NO3^−/gVSS*min
Denitrifying biomass [1]; [8]
  methanol consumption rate: 0.0 mg Methanol/gVSS*min and 0 mg Methanol/gVSS*min
  nitrate consumption rate: 0.004 mg N—NO3^−/gVSS*min
Denitrifying biomass [1]; [9]
  methanol consumption rate, activity recovery: 0.133 mg Methanol/gVSS*min
  nitrate consumption rate, activity recovery: 0.004 mg N—NO3^−/gVSS*min
Denitrifying biomass [1]; [10]
  methanol consumption rate, activity recovery: 0.067 mg Methanol/gVSS*min
  nitrate consumption rate, activity recovery: 0.022 mg N—NO3^−/gVSS*min
Denitrifying biomass [1]; [11]
  methanol consumption rate, activity recovery: 0.235 mg Methanol/gVSS*min
  nitrate consumption rate, activity recovery: 0.089 mg N—NO3^−/gVSS*min
Denitrifying biomass [2]
  Average (% dead cells): 40.4%
[3]
  Average (% dead cells): 63.6%
[4]; longest exposure time to FNA, even at lowest FNA concentration
  biomass (denitrification) activity recovery: almost negligible
[4]; lower exposure time, 8 h to FNA
  biomass (denitrification) activity recovery: displays a recovery
[5]; 48 h of exposure vs shorter, biggest difference at highest FNA concentrations
  live cell fraction, effect of exposure time: Smaller live cell fraction
[5]; exposure 8 h, 24 h, 48 h (FIG. 3)
  fraction of viable cells, dependency on FNA concentration: decreased with increasing FNA concentration
[6]; FNA reactor, steady state
  MLSS Predicted if FNA did not improve sludge degradability: 2369 mg/L
  MLVSS Predicted if FNA did not improve sludge degradability: 2274 mg/L
[6]; mass balance analysis of MLSS and MLVSS
  FNA treated sludge degraded in the reactor: approximately 75%
Secondary sludge
  NH4+ release rate, dependency on FNA concentration: decrease
AOB, NOB and OHOs
  reduction of NOB and OHO compared to AOB: significantly greater reduction in NOB

— patent publication US9242883B2, “Pre-treatment of sludge” (THE UNIVERSITY OF QUEENSLAND, priority 2011, dated 2016)
